Literature values in patent US20260275225A1, “LIQUID ALKYLATED PHENYL-ALPHA-NAP[…] REDUCED AQUATIC TOXICITY” (BASF SE, priority 2023, published 2026).
In brackets after ≈: the same amount, converted by molar mass.

Test system: daphnids
Settings: OECD Test 202; from commercially available Amine A safety data sheets

In the case of `c1ccc(Nc2cccc3ccccc23)cc1` [Amine A, n-Phenyl-1-naphthylamine], the EC50 is listed as 0.32 µg/mL (≈ 1.46 µM).
